Experimental findings from US20260078130A1, “NAMPT MODULATORS, PREPARATIONS, AND USES THEREOF” (SIRONAX LTD., priority 2022, published 2026) are described below.

Read-outs that look alike come from different tables or passages of the source. Some results are limits rather than exact numbers.

Assay [1] concerns endogenous NAMPT in U2OS cells. As to the kind of experiment: Cellular NAD+ modulation assay (NAD/NADH-Glo, U2OS cells). It is filed as cell-based. To be noted: Homo sapiens; for maximal fold induction: read-out: Cellular Emax. The method, boiled down:
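NAD/NADH-Glo luminescence quantified NAD+ after acid treatment (60 °C, 15 min) and neutralization of DTAB lysates. Beforehand, U2OS cells seeded 16 h earlier received compound concentration series for 24 h at 37 °C. Values given as half-maximal activation concentration (EC50) and maximal fold change versus DMSO (Emax).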

Assay [2] concerns the target T1, human enzyme NAMPT (full length) (Homo sapiens, UniProt P43490).
T1 construct: human enzyme NAMPT (full length)
As to the kind of experiment: NMN fluorescence biochemical assay (stimulation of NMN synthesis by NAMPT). To be noted: for EC50: concentration giving half-maximal activation, read-out: Enzymatic EC50; for Enzymatic Emax: fold change of maximal activation compared to DMSO. The method in brief:
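Full-length human NAMPT (100 nM) was preincubated 15 min at 37 °C with compound in 50 mM Tris-HCl pH 7.5, 10 mM MgCl2, 2 mM DTT, then reacted 1 h at 37 °C with 50 μM NAM, 100 μM PRPP, 4 mM ATP (stated solution concentrations). NMN was derivatised with acetophenone/KOH then formic acid and read at Ex/Em 382/445 nm; EC50 and Emax (fold over DMSO) reported.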

The mark [3] stands for this setting: 24 hours incubation, cellular NAD+.
[4] abbreviates: NMN fluorescence assay, purified human NAMPT 100 nM.
Where [5] appears, read: 24 hours incubation with compound.
Setting [6] is: NMN synthesis by purified human NAMPT (100 nM).

T1 sequence (P43490 whole entry): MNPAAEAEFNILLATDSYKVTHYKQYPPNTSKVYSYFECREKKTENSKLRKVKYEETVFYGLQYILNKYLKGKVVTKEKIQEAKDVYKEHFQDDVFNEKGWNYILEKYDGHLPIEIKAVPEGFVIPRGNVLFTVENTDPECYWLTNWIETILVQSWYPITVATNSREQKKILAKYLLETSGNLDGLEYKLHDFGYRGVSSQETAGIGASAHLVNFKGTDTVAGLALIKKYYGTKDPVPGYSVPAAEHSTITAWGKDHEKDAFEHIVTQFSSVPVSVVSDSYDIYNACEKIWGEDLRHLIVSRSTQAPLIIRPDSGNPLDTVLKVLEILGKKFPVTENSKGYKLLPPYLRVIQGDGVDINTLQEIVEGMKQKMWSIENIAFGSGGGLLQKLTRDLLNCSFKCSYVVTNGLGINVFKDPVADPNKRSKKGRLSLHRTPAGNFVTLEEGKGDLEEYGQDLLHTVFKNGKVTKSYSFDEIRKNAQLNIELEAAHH

As a reminder, the EC50 is the concentration giving half of the maximal effect. For the compound `Cn1ncc(Cl)c1CC1c2cc(C(F)F)ccc2C(=O)N1Cc1ccc2[nH]nnc2c1` (stereo not drawn) [Compound 435, 2-((1H-benzo[d][1,2,3]triazol-5-yl)methyl)-3-((4-chloro-1-methyl-1H-pyrazol-5-yl)methyl)-5-(difluoromethyl)isoindolin-1-one], the EC50 in assay [1] (setting [3]) and in assay [2] (setting [4]) was < 500 nM in each case. For the same compound, in assay [1] (setting [3]), the maximal fold induction was > 1.5. Besides, in assay [2], the “Enzymatic Emax” value was “A (A>3)”.

In the case of `COc1nn(C)c(CC2c3ccccc3C(=O)N2Cc2ccc3[nH]nnc3c2)c1Cl` (stereo not drawn) [Compound 316, 2-((1H-benzo[d][1,2,3]triazol-5-yl)methyl)-3-((4-chloro-3-methoxy-1-methyl-1H-pyrazol-5-yl)methyl)isoindolin-1-one], the EC50 in assay [1] (setting [5]) and in assay [2] (setting [6]) was < 500 nM throughout. For the same compound, the maximal fold induction in assay [1] (setting [5]) fell in the range of 1.2 to 1.5. Also, in assay [2], the “Enzymatic Emax” value is listed as “B (3≥B>2)”.

As to `N#Cc1cncc(C#N)c1CC1c2ccccc2C(=O)N1Cc1ccc2[nH]c(=O)oc2c1` (stereo not drawn) [Compound 283, 4-((3-oxo-2-((2-oxo-2,3-dihydrobenzo[d]oxazol-6-yl)methyl)isoindolin-1-yl)methyl) pyridine-3,5-dicarbonitrile], in assay [1] (setting [5]), the EC50 is < 500 nM and the maximal fold induction was in the range of 1.2 to 1.5. Further, in assay [2] (setting [6]), the half-maximal effective concentration (EC50) is < 500 nM. The “Enzymatic Emax” value in assay [2] is listed as “A (A>3)”.

With `COCCn1cc(Cl)c(CC2c3ccccc3C(=O)N2Cc2ccc3[nH]c(=O)oc3c2)n1` (stereo not drawn) [Compound 277, 6-((1-((4-chloro-1-(2-methoxyethyl)-1H-pyrazol-3-yl)methyl)-3-oxoisoindolin-2-yl)methyl) benzo[d]oxazol-2(3H)-one], in assay [1] (setting [5]), the concentration for a half-maximal effect (EC50) was < 500 nM and the maximal fold induction was > 1.5. The EC50 in assay [2] (setting [6]) was in the range of 500 to 5000 nM. In addition, the “Enzymatic Emax” value in assay [2] is “A (A>3)”.

For `Cn1ncc(Cl)c1CC1c2cc(C3CC3)ccc2C(=O)N1Cc1ccc2[nH]nnc2c1` (stereo not drawn) [Compound 350, 2-((1H-benzo[d][1,2,3]triazol-5-yl)methyl)-3-((4-chloro-1-methyl-1H-pyrazol-5-yl)methyl)-5-cyclopropylisoindolin-1-one], in assay [1] (setting [3]), the EC50 is < 500 nM and the maximal fold induction is > 1.5. Moreover, the half-maximal effective concentration (EC50) in assay [2] (setting [4]) is < 500 nM. The “Enzymatic Emax” value in assay [2] is listed as “A (A>3)”.

Consider `N#CCC1c2ccccc2C(=O)N1Cc1ccc(O)cc1` (stereo not drawn) [Compound 27, 2-(2-(4-hydroxybenzyl)-3-oxoisoindolin-1-yl)acetonitrile], for which, in assay [1] (setting [5]), the EC50 fell in the range of 5000 to 50000 nM and the maximal fold induction is > 1.5. The concentration giving a half-maximal response (EC50) in assay [2] (setting [6]) was ≥ 5000 nM. Besides, the “Enzymatic Emax” value in assay [2] is listed as “A (A>3)”.

In the case of `COc1ccc(CN2C(=O)c3c(F)cc(Cl)cc3C2Cc2c(Cl)cnn2C)cc1` (stereo not drawn) [Compound 581, 5-chloro-3-((4-chloro-1-methyl-1H-pyrazol-5-yl)methyl)-7-fluoro-2-(4-methoxybenzyl)isoindolin-1-one], in assay [1] (setting [3]), the EC50 is 500 to 5000 nM and the maximal fold induction is 1.2 to 1.5. In addition, the half-maximal effective concentration (EC50) in assay [2] (setting [4]) was 500 to 5000 nM. In addition, in assay [2], the “Enzymatic Emax” value is on record as “A (A>3)”.

In the case of `C#Cc1cccnc1CC1c2ccccc2C(=O)N1Cc1ccc2[nH]c(=O)oc2c1` (stereo not drawn) [Compound 215, 6-((1-((3-ethynylpyridin-2-yl)methyl)-3-oxoisoindolin-2-yl)methyl)benzo[d]oxazol-2(3H)-one], in assay [1] (setting [5]), the 50% effective concentration (EC50) is < 500 nM and the maximal fold induction was > 1.5. For the same compound, the 50% effective concentration (EC50) in assay [2] (setting [6]) is 500 to 5000 nM. Moreover, in assay [2], the “Enzymatic Emax” value is “A (A>3)”.

With `CC1c2cc(NC3CC4(CNC4)C3)ccc2C(=O)N1Cc1ccc2[nH]c(=O)oc2c1` (stereo not drawn) [Compound 79, 6-((5-((2-azaspiro[3.3]heptan-6-yl)amino)-3-methyl-1-oxoisoindolin-2-yl)methyl)benzo[d]oxazol-2(3H)-one], in assay [1] (setting [5]), the EC50 was < 500 nM and the maximal fold induction is ≤ 1.2. Moreover, the EC50 in assay [2] (setting [6]) is ≥ 5000 nM. The “Enzymatic Emax” value in assay [2] is “A (A>3)”.

Consider `Cn1ncc(Cl)c1CC1c2c(F)cccc2C(=O)N1CC1CC2(CNC(=O)O2)C1` (stereo not drawn) [Compound 511, 2-((3-((4-chloro-1-methyl-1H-pyrazol-5-yl)methyl)-4-fluoro-1-oxoisoindolin-2-yl)methyl)-5-oxa-7-azaspiro[3.4]octan-6-one], for which, in assay [1] (setting [3]), the concentration for a half-maximal effect (EC50) is < 500 nM and the maximal fold induction was 1.2 to 1.5. Also, the EC50 in assay [2] (setting [4]) was in the range of 500 to 5000 nM. In assay [2], the “Enzymatic Emax” value is on record as “A (A>3)”.

Regarding `COCCOc1nn(C)c(CC2c3ccccc3C(=O)N2Cc2ccc3[nH]nnc3c2)c1Cl` (stereo not drawn) [Compound 371, 2-((1H-benzo[d][1,2,3]triazol-5-yl)methyl)-3-((4-chloro-3-(2-methoxyethoxy)-1-methyl-1H-pyrazol-5-yl)methyl)isoindolin-1-one], in assay [1] (setting [3]), the EC50 is < 500 nM and the maximal fold induction was > 1.5. Moreover, in assay [2] (setting [4]), the EC50 is < 500 nM. Also, the “Enzymatic Emax” value in assay [2] is “B (3≥B>2)”.

Regarding `Cn1ncc(Cl)c1CC1c2cccc(Cl)c2C(=O)N1Cc1ccc2[nH]nnc2c1` (stereo not drawn) [Compound 336, 2-((1H-benzo[d][1,2,3]triazol-5-yl)methyl)-7-chloro-3-((4-chloro-1-methyl-1H-pyrazol-5-yl)methyl)isoindolin-1-one], in assay [1] (setting [3]), the half-maximal effective concentration (EC50) is < 500 nM and the maximal fold induction is > 1.5. Also, the EC50 in assay [2] (setting [4]) is < 500 nM. For the same compound, in assay [2], the “Enzymatic Emax” value is recorded as “A (A>3)”.

In the case of `Cc1cccnc1CC1c2ccccc2C(=O)N1Cc1ccc2[nH]c(=O)oc2c1` (stereo not drawn) [Compound 176, 6-((1-((3-methylpyridin-2-yl)methyl)-3-oxoisoindolin-2-yl)methyl)benzo[d]oxazol-2(3H)-one], in assay [1] (setting [5]), the EC50 fell in the range of 500 to 5000 nM and the maximal fold induction is > 1.5. Besides, the concentration for a half-maximal effect (EC50) in assay [2] (setting [6]) is < 500 nM. In addition, the “Enzymatic Emax” value in assay [2] is on record as “A (A>3)”.

For `Cn1ncc(Cl)c1CC1c2cc(Cl)ccc2C(=O)N1Cc1ccc2[nH]nnc2c1` (stereo not drawn) [Compound 354, 2-((1H-benzo[d][1,2,3]triazol-5-yl)methyl)-5-chloro-3-((4-chloro-1-methyl-1H-pyrazol-5-yl)methyl)isoindolin-1-one], the EC50 in assay [1] (setting [3]) and in assay [2] (setting [4]) was < 500 nM each time. The maximal fold induction in assay [1] (setting [3]) is > 1.5. Also, the “Enzymatic Emax” value in assay [2] is recorded as “A (A>3)”.

`CC1c2cc(NC3CCOCC3)ccc2C(=O)N1Cc1ccc2[nH]c(=O)oc2c1` (stereo not drawn) [Compound 95, 6-((3-methyl-1-oxo-5-((tetrahydro-2H-pyran-4-yl)amino)isoindolin-2-yl)methyl)benzo[d]oxazol-2(3H)-one]: in assay [1] (setting [5]), the EC50 was 5000 to 50000 nM and the maximal fold induction is > 1.5. Moreover, in assay [2] (setting [6]), the half-maximal effective concentration (EC50) was in the range of 500 to 5000 nM. Further, the “Enzymatic Emax” value in assay [2] is “B (3≥B>2)”.

As to `COc1ccc(CN2C(=O)c3ccccc3C2Cc2ncccc2Br)cn1` (stereo not drawn) [Compound 513, 3-((3-bromopyridin-2-yl)methyl)-2-((6-methoxypyridin-3-yl)methyl)isoindolin-1-one], in assay [1] (setting [3]), the EC50 lay within 500 to 5000 nM and the maximal fold induction is > 1.5. The half-maximal effective concentration (EC50) in assay [2] (setting [4]) lay in the range of 500 to 5000 nM. In assay [2], the “Enzymatic Emax” value is “B (3≥B>2)”.

Regarding `Cn1ncc(Cl)c1CC1c2ccccc2C(=O)N1C[C@H]1C[C@@]2(CNC(=O)O2)C1` (stereo partly drawn) [Compound 483, (2r,4r)-2-((1-((4-chloro-1-methyl-1H-pyrazol-5-yl)methyl)-3-oxoisoindolin-2-yl)methyl)-5-oxa-7-azaspiro[3.4]octan-6-one], the results for the EC50 in assay [1] (setting [3]) and in assay [2] (setting [4]) were < 500 nM and 500 to 5000 nM, respectively. The maximal fold induction in assay [1] (setting [3]) fell in the range of 1.2 to 1.5. Moreover, the “Enzymatic Emax” value in assay [2] was “B (3≥B>2)”.

For the compound `Cn1ncc(Cl)c1CC1c2ccccc2C(=O)N1C/C(F)=C\c1c[nH]nn1` (stereo not drawn) [Compound 515, (E)-3-((4-chloro-1-methyl-1H-pyrazol-5-yl)methyl)-2-(2-fluoro-3-(1H-1,2,3-triazol-4-yl)allyl)isoindolin-1-one], in assay [1] (setting [3]), the concentration giving a half-maximal response (EC50) is 500 to 5000 nM and the maximal fold induction was > 1.5. For the same compound, the EC50 in assay [2] (setting [4]) is ≥ 5000 nM. Moreover, the “Enzymatic Emax” value in assay [2] is given as “B (3≥B>2)”.

`O=C1NCC2(CC(CN3C(=O)c4ccccc4C3Cc3c(Cl)nc4sccn34)C2)O1` (stereo not drawn) [Compound 469, 2-((1-((6-chloroimidazo[2,1-b]thiazol-5-yl)methyl)-3-oxoisoindolin-2-yl)methyl)-5-oxa-7-azaspiro[3.4]octan-6-one]: in assay [1] (setting [3]), the concentration for a half-maximal effect (EC50) was < 500 nM and the maximal fold induction was > 1.5. Also, the concentration for a half-maximal effect (EC50) in assay [2] (setting [4]) was in the range of 500 to 5000 nM. Besides, the “Enzymatic Emax” value in assay [2] was “B (3≥B>2)”.

`Cn1c(CC2c3ccccc3C(=O)N2CC2CC3(CNC(=O)O3)C2)c(Cl)ccc1=O` (stereo not drawn) [Compound 467, 2-((1-((3-chloro-1-methyl-6-oxo-1,6-dihydropyridin-2-yl)methyl)-3-oxoisoindolin-2-yl)methyl)-5-oxa-7-azaspiro[3.4]octan-6-one]: in assay [1] (setting [3]), the EC50 is < 500 nM and the maximal fold induction is > 1.5. Moreover, the concentration for a half-maximal effect (EC50) in assay [2] (setting [4]) is < 500 nM. Also, the “Enzymatic Emax” value in assay [2] is “B (3≥B>2)”.

For `Cn1ncc(Cl)c1CC1c2ccc(Cl)cc2C(=O)N1Cc1ccc2[nH]nnc2c1` (stereo not drawn) [Compound 343, 2-((1H-benzo[d][1,2,3]triazol-5-yl)methyl)-6-chloro-3-((4-chloro-1-methyl-1H-pyrazol-5-yl)methyl)isoindolin-1-one], in assay [1] (setting [3]), the EC50 is < 500 nM and the maximal fold induction is > 1.5. In assay [2] (setting [4]), the half-maximal effective concentration (EC50) was < 500 nM. Moreover, in assay [2], the “Enzymatic Emax” value was “A (A>3)”.
